Measurements from patent EP0907632B1, “INHIBITION OF MATRIX METALLOPROTEASES BY SUBSTITUTED PHENETHYL COMPOUNDS” (Bayer Corporation, priority 1996, dated 1997).

How the values were obtained:
MMP-3 = molecular target: T1, MMP-3 (Homo sapiens, UniProt P08254); format: biochemical; conditions: 6 µM P218 substrate, pH 6.5, 25 min at 37°C; calculated from IC50; read-out: MMP-3 Kf
T1 construct: made in house; host or cells: CHO cells
Description: (§1) The P218 quenched fluorescence assay (Microfluorometric Profiling Assay) is a modification of that originally described by Knight, et al., FEBS Lett. 296, 263, 1992 for a related substance and a variety of matrix metalloproteinases (MMPs) in cuvettes. The assay was run with each invention compound and the three MMPs, Mmp-3, MMP-9 and MMP-2, analyzed in parallel, adapted as follows for a 96-well microtiter plate and a Hamilton AT® workstation. P218 Fluorogenic Substrate: P218 is a synthetic substrate containing a 4-acetyl-7-methoxycoumarin (MCA) group in the N-terminal position and a 3-[2, 4-dinitrophenyl]-L-2,3-diaminopropionyl (DPA) group internally. This is a modification of a peptide reported by Knight (1992) that was used as a substrate for matrix metalloproteinases. Once the P218 peptide is cleaved (putative clip site at the Ala-Leu bond), the fluorescence of the MCA group can be detected on a fluorometer with excitation at 328 nm and emission at 393 nm. P218 is currently being produced BACHEM exclusively for Bayer. P218 has the structure: H-MCA-Pro-Lys-Pro-Leu-Ala-Leu-DPA-Ala-Arg-NH2 (MW 1332.2)
Recombinant Human CHO Pro-MMP-3: Human CHO pro-stromelysin-257 (pro-MMP-3) was expressed and purified as described by Housley, et al., J. Biol. Chem. 268, 4481, 1993.
Activation of Pro-MMP-3 Pro-MMP-3 at 1.72 µM (100 µg/mL) in 5 mM Tris at pH 7.5, 5 mM CaCl2, 25 mM NaCl, and 0.005% Brij-35 (MMP-3 activation buffer) was activated by incubation with TPCK (N-tosyl-(L)-phenylalanine chloromethyl ketone) trypsin (1:100 w/w to pro-MMP-3) at 25 °C for 30 min. The reaction was stopped by addition of soybean trypsin inhibitor (SBTI: 5:1 w/w to trypsin concentration). This activation protocol results in the formation of 45 kDa active MMP-3, which still contains the C-terminal portion of the enzyme.
(§2) Hamiltion Microlab AT P!us: The MMP-Profiling Assay is performed robotically on a Hamilton MicroLab AT Plus®. The Hamilton is programmed to: (1) serially dilute up to 11 potential inhibitors automatically from a 2.5 mM stock in 100% DMSO; (2) distribute substrate followed by inhibitor into a 96 well Cytofluor plate; and (3) add a single enzyme to the plate with mixing to start the reaction. Subsequent plates for each additional enzyme are prepared automatically by beginning the program at the substrate addition point, remixing the diluted inhibitors and beginning the reaction by addition of enzyme. In this way, all MMP assays were done using the same inhibitor dilutions.
(§3) Millipore Cytofluor II. Following incubation, the plate was read on a Cytofluor II fluorometric place reader with excitation at 340 nm and emission at 395 nm with the gain set at 80.
(§4) Microfluorometric Reaction Buffer (MRB): Dilution of test compounds, enzymes, and P218 substrate for the microfluorometric assay were made in microfluorometric reaction buffer consisting of 50 mM 2-(N-morpholino)ethanesulfonic acid (MES) at pH 6.5 with 10 mM CaCl2, 150 mM NaCl, 0.005% Brij-35 and 1% DMSO.
(§5) MMP Microfluorometric Profiling Assay. The assay is done with a final substrate concentration of 6 µM P218 and approximately .5 to .8 nM MMP with variable drug concentrations. The Hamilton is programmed to serially dilute up to 11 compounds from a 2.5 mM stock (100% DMSO) to 10x the final compounds concentrations in the assay. Initially, the instrument delivers various amounts of microfluoromentric reaction buffer (MRB) to a 96 tube rack of 1 ml Marsh dilution tubes. The instrument then picks up 20 µl of inhibitor (2.5 mM) from the sample rack and mixes it with a buffer in row A of the Marsh rack, resulting in a 50 µM drug concentration. The inhibitors are then serially diluted to 10, 5, 1, .2, .05 and .01 µM. Position 1 on the sample rack contains only DMSO for the "enzyme-only" wells in the assay, which results in no inhibitor in column 1, rows A through H. The instrument then distributes 107 µl of P218 substrate (8.2 µM in MRB) to a single 96 well cytofluor microtiter plate. […]

MMP-9 = molecular target: T2, MMP-9 (Homo sapiens, UniProt P14780); format: biochemical; conditions: 6 µM P218 substrate, pH 6.5, 25 min at 37°C; calculated from IC50; read-out: MMP-9 Kf
T2 construct: made in house
Description: as §1
Recombinant Human Pro-MMP-9: Human pro-gelatinase B (pro-MMP-9) derived from U937 cDNA as described by Wilhelm, et al. J. Biol. Chem. 264, 17213, 1989 was expressed as the full-length form using a baculovirus protein expression system. The pro-enzyme was purified using methods previously described by Hibbs, et al. J. Biol. Chem. 260, 2493, 1984.
Activation of Pro-MMP-9: […] 20 µg/mL in 50 mM Tris at pH 7.4, 10mM CaCl2, 150 mM NaCl, and 0.005% Brij-35 (MMP-9 activation buffer) was activated by incubation with 0.5 mM p-aminophenylmercuric acetate (APMA) for 3.5 h at 37 °C. The enzyme was dialyzed against the same buffer to remove the APMA.
as §2, §3, §4, §5

MMP-2 = molecular target: T3, MMP-2 (Homo sapiens, UniProt P08253); test: biochemical
T3 sequence (P08253 110-660): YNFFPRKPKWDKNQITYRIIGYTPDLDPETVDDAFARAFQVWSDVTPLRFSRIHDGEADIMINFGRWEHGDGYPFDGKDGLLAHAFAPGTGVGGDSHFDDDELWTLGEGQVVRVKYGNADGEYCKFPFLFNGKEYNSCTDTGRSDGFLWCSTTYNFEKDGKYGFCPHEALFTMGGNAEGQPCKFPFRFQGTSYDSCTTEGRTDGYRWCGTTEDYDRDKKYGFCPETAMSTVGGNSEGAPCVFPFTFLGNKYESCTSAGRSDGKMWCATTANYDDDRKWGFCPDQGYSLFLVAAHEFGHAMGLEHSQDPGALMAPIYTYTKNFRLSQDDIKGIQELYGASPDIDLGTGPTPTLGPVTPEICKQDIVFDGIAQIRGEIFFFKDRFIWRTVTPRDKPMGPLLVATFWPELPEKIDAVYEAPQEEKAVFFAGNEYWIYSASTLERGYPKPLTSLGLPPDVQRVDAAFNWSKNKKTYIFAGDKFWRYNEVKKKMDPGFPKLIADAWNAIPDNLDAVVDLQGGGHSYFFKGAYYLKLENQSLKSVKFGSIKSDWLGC

T1 sequence (P08254 100-477): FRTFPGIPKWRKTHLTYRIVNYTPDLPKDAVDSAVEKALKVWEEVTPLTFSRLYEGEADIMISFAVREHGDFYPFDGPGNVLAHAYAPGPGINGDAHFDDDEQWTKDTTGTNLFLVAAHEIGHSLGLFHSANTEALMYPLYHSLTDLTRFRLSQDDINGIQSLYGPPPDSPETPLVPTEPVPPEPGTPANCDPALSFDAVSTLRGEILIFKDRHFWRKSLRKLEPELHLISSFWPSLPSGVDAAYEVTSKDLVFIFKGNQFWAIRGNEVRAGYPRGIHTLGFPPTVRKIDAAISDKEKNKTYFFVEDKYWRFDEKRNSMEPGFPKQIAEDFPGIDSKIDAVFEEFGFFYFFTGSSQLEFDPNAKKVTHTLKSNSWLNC
T2 sequence (P14780 107-707 limits assumed): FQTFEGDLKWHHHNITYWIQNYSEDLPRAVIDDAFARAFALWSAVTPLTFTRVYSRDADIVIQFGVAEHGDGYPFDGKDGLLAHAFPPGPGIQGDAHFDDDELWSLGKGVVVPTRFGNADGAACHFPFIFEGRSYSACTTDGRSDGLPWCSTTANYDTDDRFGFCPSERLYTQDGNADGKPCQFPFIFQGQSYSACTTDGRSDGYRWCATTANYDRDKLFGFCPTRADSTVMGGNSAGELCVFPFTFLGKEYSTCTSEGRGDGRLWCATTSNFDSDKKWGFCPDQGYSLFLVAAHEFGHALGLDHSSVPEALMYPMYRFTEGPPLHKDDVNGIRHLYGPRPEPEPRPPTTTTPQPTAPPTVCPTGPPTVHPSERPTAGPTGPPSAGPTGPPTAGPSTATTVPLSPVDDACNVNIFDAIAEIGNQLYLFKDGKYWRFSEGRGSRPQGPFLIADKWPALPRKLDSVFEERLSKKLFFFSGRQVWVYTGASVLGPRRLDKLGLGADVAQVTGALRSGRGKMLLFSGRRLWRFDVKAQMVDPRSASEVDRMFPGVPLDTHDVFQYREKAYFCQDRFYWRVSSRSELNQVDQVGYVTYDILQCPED

Compound	Ki (MMP-3)	Ki (MMP-9)	Ki (MMP-2)
O=C(O)CNC(=O)c1ccc(CCC(CC(=O)c2ccc(-c3ccc(Cl)cc3)cc2)C(=O)O)cc1 (stereo not drawn) [Compound XXIV, α-[2-[4[[(carboxymethyl)amino]carbonyl]phenyl]ethyl]-4'-chloro-γ-oxo-[1,1'-biphenyl]-4-butanoic acid]	293 nM	915 nM	82.4 nM
CCCCCOc1ccc(-c2ccc(C(=O)CC(CCc3cccc(C(=O)N4CCCCC4)c3)C(=O)O)cc2)cc1 (stereo not drawn) [Compound XXXI, γ-oxo-4'-(pentyloxy)-α-[2-[3-(1-piperidinylcarbonyl)phenyl]ethyl]-[1,1'-biphenyl]-4-butanoic acid]	35.8 nM	373 nM	17 nM
O=C(CC(CCc1cccc(C(=O)N2CCOCC2)c1)C(=O)O)c1ccc(-c2ccc(Cl)cc2)cc1 (stereo not drawn) [Compound X, 4'-chloro-α-[2-[3-(4-morpholinylcarbonyl)phenyl]ethyl]-γ-oxo-[1,1'-biphenyl]-4-butanoic acid]	73.8 nM	251 nM	26.1 nM
O=C(CC(CCc1ccccc1C(=O)N1CCCCC1)C(=O)O)c1ccc(-c2ccc(Cl)cc2)cc1 (stereo not drawn) [V, 4'-chloro-γ-oxo-α-[2-[2-(1-piperidinylcarbonyl)phenyl]ethyl]-[1,1'-biphenyl]-4-butanoic acid]	54.7 nM	146 nM	13.8 nM
CCOC(=O)CN(C)C(=O)c1cccc(CCC(CC(=O)c2ccc(-c3ccc(Cl)cc3)cc2)C(=O)O)c1 (stereo not drawn) [XVI, 4'-chloro-α-[2-[3-[[(2-ethoxy-2-oxoethyl)methylamino]carbonyl]phenyl]ethyl]-γ-oxo-[1,1'-biphenyl]-4-butanoic acid]	24.8 nM	137 nM	9.86 nM
O=C(CC(CCc1cccc(C(=O)NCc2ccccc2)c1)C(=O)O)c1ccc(-c2ccc(Cl)cc2)cc1 (stereo not drawn) [XV, 4'-chloro-γ-oxo-α-[2-[3-[[(phenylmethyl)amino]carbonyl]phenyl]ethyl]-[1,1'-biphenyl]-4-butanoic acid]	364 nM	493 nM	104 nM
CC(C)CCNC(=O)c1ccccc1CCC(CC(=O)c1ccc(-c2ccc(Cl)cc2)cc1)C(=O)O (stereo not drawn) [VI, 4'-chloro-α-[2-[2-[[(3-methylbutyl)amino]carbonyl]phenyl]ethyl]-γ-oxo-[1,1'-biphenyl]-4-butanoic acid]	214 nM	431 nM	58.1 nM
CC(C)CCNC(=O)c1ccc(CCC(CC(=O)c2ccc(-c3ccc(Cl)cc3)cc2)C(=O)O)cc1 (stereo not drawn) [XVIII, 4'-chloro-α-[2-[4-[[(3-methylbutyl)amino]carbonyl]phenyl]ethyl]-γ-oxo-[1,1'-biphenyl]-4-butanoic acid]	677 nM	452 nM	137 nM
O=C(CC(CCc1ccccc1C(=O)NCc1ccccc1)C(=O)O)c1ccc(-c2ccc(Cl)cc2)cc1 (stereo not drawn) [III, 4'-chloro-γ-oxo-α-[2-[2-[[(phenylmethyl)amino]carbonyl]phenyl]ethyl]-[1,1'-biphenyl]-4-butanoic acid]	174 nM	475 nM	60.3 nM
CCOC(=O)CNC(=O)c1ccccc1CCC(CC(=O)c1ccc(-c2ccc(Cl)cc2)cc1)C(=O)O (stereo not drawn) [VIII, 4'-chloro-α-[2-[2-[[(2-ethoxy-2-oxo-ethyl)amino]carbonyl]phenyl]ethyl]-γ-oxo-[1,1'-biphenyl]-4-butanoic acid]	165 nM	806 nM	56.8 nM
O=C(CC(CCc1cccc(C(=O)N2CCCCC2)c1)C(=O)O)c1ccc(-c2ccc(OCc3ccccc3)cc2)cc1 (centres unmarked) [Compound XXX]	12.5 nM	102 nM	4.44 nM
CCOC(=O)CN(C)C(=O)c1ccccc1CCC(CC(=O)c1ccc(-c2ccc(Cl)cc2)cc1)C(=O)O (stereo not drawn) [IX, 4'-chloro-α-[2-[2-[[(2-ethoxy-2-oxoethyl)methylamino]carbonyl]phenyl]ethyl]-γ-oxo-[1,1'-biphenyl]-4-butanoic acid]	43.6 nM	254 nM	17.5 nM
O=C(CC(CCc1cccc(C(=O)NCCCc2ccccc2)c1)C(=O)O)c1ccc(-c2ccc(Cl)cc2)cc1 (stereo not drawn) [XIII, 4'-chloro-γ-oxo-α-[2-[3[[(3-phenylpropyl)amino]carbonyl]phenyl]ethyl]-[1,1'-biphenyl]-4-butanoic acid]	236 nM	552 nM	157 nM
O=C(O)CCNC(=O)c1ccccc1CCC(CC(=O)c1ccc(-c2ccc(Cl)cc2)cc1)C(=O)O (centres unmarked) [Compound XXII]	166 nM	1130 nM	63.5 nM
O=C(CC(CCc1ccc(C(=O)NCCc2ccccc2)cc1)C(=O)O)c1ccc(-c2ccc(Cl)cc2)cc1 (stereo not drawn) [Compound XX, 4'-chloro-γ-oxo-α-[2-[4-[[(2-phenylethyl)amino]carbonyl]phenyl]ethyl]-[1,1'-biphenyl]-4-butanoic acid]	–	2000 nM	446 nM
O=C(CC(CCc1ccccc1C(=O)NCCc1ccccc1)C(=O)O)c1ccc(-c2ccc(Cl)cc2)cc1 (stereo not drawn) [Compound I, 4'-chloro-γ-oxo-α-[2-[2-[[(2-phenylethyl)amino]carbonyl]phenyl]ethyl]-[1,1'-biphenyl]-4-butanoic acid]	127 nM	173 nM	41.1 nM
O=C(O)CNC(=O)c1ccccc1CCC(CC(=O)c1ccc(-c2ccc(Cl)cc2)cc1)C(=O)O (stereo not drawn) [Compound XXIII, α-[2-[2-[[(2-carboxymethyl)amino]carbonyl]phenyl]ethyl]-4'-chloro-γ-oxo-[1,1'-biphenyl]-4-butanoic acid]	259 nM	1590 nM	96 nM
